# Source: ChEMBL document CHEMBL1201862, “PubChem BioAssay data set” (2004)
# Activity calls are given as the source filed them.
# How the values were obtained:
# [1] = growth suppression of beta-catenin-knockout colon cells, dose response, cell-based, HCT116, human colon tumor (AID 1045); format: functional;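 also: HCT116 colon tumor cells with beta catenin knocked out; cells exposed to compound for 60 hours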
# [2] = target: Protein-tyrosine kinase 2-beta (Homo sapiens, UniProt Q14289);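 also: potency of inhibitors of PYK2 kinase phosphorylation of poly-GT substrate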
# Integrin alpha-4 = Integrin alpha-4 (Homo sapiens, UniProt P13612); experiment: VLA-4 integrin allosteric ligands, SAR follow-up, cell-based, LIBS antibody binding, flow cytometry (AID 488791); format: functional
# [3] = cytotoxicity toward NIH3T3 fibroblasts, dose response, counter-screen, cell-based, ATP luminescence, mouse fibroblasts (AID 2010); format: functional;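 also: cells exposed to compound for about 90 hours before reading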
# [4] = inhibitors of intracellular T. cruzi replication, confirmation, NIH3T3 host cells, beta-gal luminescence (AID 2044); format: functional, cell-based;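 also: intracellular parasites grown in NIH/3T3 mouse fibroblasts as host cells; luminescent beta-galactosidase reporter signal from transgenic T. cruzi replicating inside host cells; inhibitors lower the luminescence signal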
# [5] = HepG2 cell cytotoxicity, dose response, cytotoxicity control, plate reader, cherry-pick, antagonist series (AID 743416); format: functional, cell-based
# [6] = MC4R antagonists, dose response, counter-screen for LGR2 antagonist project, cell-based, plate reader, cherry pick (AID 743444); format: functional;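 also: transfected HEK 293 cells stimulated with alpha-MSH peptide; potency of inhibitors of the alpha-MSH evoked signal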
# [7] = LGR2 antagonists, dose response, cell-based, HEK293, CRE-luciferase reporter, cherry pick, set 2 (AID 743343); format: functional;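 also: transfected cells were stimulated with diluted bursicon conditioned medium after compound addition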
# [8] = A549 cell cytotoxicity, dose response, cytotoxicity control, plate reader, cherry-pick, antagonist series (AID 743412); format: functional, cell-based
# [9] = NIH-3T3 fibroblast cytotoxicity, dose response, cytotoxicity control, cell-based, fluorescence, Alamar Blue, secondary assay (AID 2327); format: functional;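 also: NIH-3T3 mouse fibroblasts cultured with fluconazole at 8 µg/mL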
# [10] = target: T1, G-protein coupled receptor 55 (Homo sapiens, UniProt Q9Y2T6); experiment: GPR55 antagonists blocking LPI-driven arrestin recruitment, primary screen, imaging, U2OS, beta-arrestin-GFP, LPI agonist (AID 2013); format: functional;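 also: antagonist potency measured as reduced agonist-driven arrestin aggregation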
# X-box-binding protein 1 = X-box-binding protein 1 (Homo sapiens, UniProt P17861); format: functional, Cricetulus griseus;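 also: confirmatory dose-response counter-screen serving a CHOP assay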
# [11] = HEK293 cell cytotoxicity, dose response, cytotoxicity control, plate reader, cherry-picked samples (AID 743446); format: functional, cell-based
# [12] = Shn3 3'UTR reporter inhibitors, dose response, cell-based, Clone20 osteoblasts, firefly luciferase, cherry-picked (AID 624132); format: functional;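 also: firefly luciferase luminescence from reporter carrying the Shn3 3'UTR in osteoblasts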
# [13] = C. albicans growth with fluconazole, confirmation, fluorescence, retest (AID 2467); format: functional, cell-based
# [14] = target: DNA damage-inducible transcript 3 protein (Mus musculus, UniProt P35639); format: functional, Cricetulus griseus
# [15] = HepG2 cell cytotoxicity, dose response, cytotoxicity control for Shn3 inhibitor project, CellTiter-Glo, cherry-picked (AID 624134); format: functional, cell-based
# [16] = control 3'UTR Renilla luciferase suppression, dose response, counter-screen for Shn3 inhibitor project, cell-based, Clone20-Shn3RL, cherry-picked (AID 624133); format: functional
# [17] = target: T2, Ubiquitin-conjugating enzyme E2 N (Homo sapiens, UniProt P61088); format: functional
# T2 sequence (P61088 whole entry): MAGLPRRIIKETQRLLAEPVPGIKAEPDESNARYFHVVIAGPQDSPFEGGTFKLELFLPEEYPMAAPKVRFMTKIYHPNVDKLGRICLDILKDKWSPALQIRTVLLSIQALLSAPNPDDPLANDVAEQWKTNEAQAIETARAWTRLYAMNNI
# INS1 = experiment: beta cell apoptosis inhibitors, cytokine rescue, dose response, luminescence, retest (AID 449756); format: functional, cell-based; conditions: Rattus norvegicus;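 also: cell death triggered by IL-1 beta plus TNF-alpha plus IFN-gamma mixture; protective hits raise ATP signal compared with cytokine alone wells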
# Coagulation factor XII [18] = target: T3, Coagulation factor XII (Homo sapiens, UniProt P00748); experiment: Factor XIIa Dose Response Confirmation from Single Well HTS. [Related pubchem assays (depositor defined):AID701]; format: functional
# [19] = target: T4, Carboxy-terminal domain RNA polymerase II polypeptide A small phosphatase 1 (Homo sapiens, UniProt Q9GZU7); experiment: inhibitors of CTDSP1, concentration-response testing, biochemical assay, absorbance-based, actives from ultra-high-throughput screening (AID 540297); format: functional
# T4 sequence (Q9GZU7 whole entry): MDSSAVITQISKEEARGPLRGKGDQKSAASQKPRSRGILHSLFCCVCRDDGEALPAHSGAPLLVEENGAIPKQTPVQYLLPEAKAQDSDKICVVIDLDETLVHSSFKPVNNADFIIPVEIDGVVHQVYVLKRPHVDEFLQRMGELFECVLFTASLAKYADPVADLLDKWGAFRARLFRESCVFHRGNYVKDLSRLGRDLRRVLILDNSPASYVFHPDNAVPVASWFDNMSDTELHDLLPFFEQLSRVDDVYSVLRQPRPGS
# [20] = target: E3 ubiquitin-protein ligase XIAP (Homo sapiens, UniProt P98170); experiment: Counter Screen using XIAP-Bir3 for Chemical Antagonists of Bir1/2 domains of IAP-family anti-apoptotic proteins. [Related pubchem assays (depositor defined):AID1018, AID1449, AID1514, AID1638, AID1749, AID1750, AID488957, AID488963]
# [21] = target: T5, G-protein coupled receptor 35 (Homo sapiens, UniProt Q9HC97); experiment: SAR analysis of Antagonists of the GPR35 Receptor using an Image-Based Assay - Set 4. [Related pubchem assays (depositor defined):[…]]; format: functional
# Cannabinoid receptor 1 [22] = target: T6, Cannabinoid receptor 1 (Homo sapiens, UniProt P21554); experiment: SAR analysis of antagonists of the Cannabinoid Receptor 1 using an Image-Based Assay - Set 3. [Related pubchem assays (depositor defined):AID1961, AID1965]; format: functional
# Cannabinoid receptor 2 [23] = target: T7, Cannabinoid receptor 2 (Homo sapiens, UniProt P34972); experiment: SAR analysis of antagonists of the Cannabinoid Receptor 2 using an Image-Based Assay - Set 2. [Related pubchem assays (depositor defined):AID1961, AID1965]; format: functional
# Cannabinoid receptor 2 [24] = target: T7, Cannabinoid receptor 2; experiment: SAR analysis of agonists of the Cannabinoid Receptor 2 using an Image-Based Assay - Set 2. [Related pubchem assays (depositor defined):AID1961, AID1965]; format: functional
# [25] = target: T5, G-protein coupled receptor 35; experiment: SAR analysis of Agonists of the GPR35 Receptor using an Image-Based Assay - Set 3. [Related pubchem assays (depositor defined):AID1961, AID1965]; format: functional
# [26] = target: T1, G-protein coupled receptor 55; experiment: SAR analysis of selective Agonists of GPR55 using an Image-Based Assay - Set 2. [Related pubchem assays (depositor defined):AID1961, AID1965]; format: functional
# Cannabinoid receptor 1 [27] = target: T6, Cannabinoid receptor 1; experiment: SAR analysis of agonists of the Cannabinoid Receptor 1 using an Image-Based Assay - Set 3. [Related pubchem assays (depositor defined):AID1961, AID1965]; format: functional
# [28] = Vero E6 cell cytotoxicity, dose response, cytotoxicity control for non-replicating M. tuberculosis project, secondary assay (AID 492998); format: functional, VeroE6; conditions: Vero C1008
# [29] = target: T8, Tyrosine-protein phosphatase non-receptor type 7 (Homo sapiens, UniProt P35236); experiment: redox-dependent HePTP inhibition, mechanism study, biochemical, fluorescence (AID 2068); format: functional
# T8 sequence (P35236 whole entry): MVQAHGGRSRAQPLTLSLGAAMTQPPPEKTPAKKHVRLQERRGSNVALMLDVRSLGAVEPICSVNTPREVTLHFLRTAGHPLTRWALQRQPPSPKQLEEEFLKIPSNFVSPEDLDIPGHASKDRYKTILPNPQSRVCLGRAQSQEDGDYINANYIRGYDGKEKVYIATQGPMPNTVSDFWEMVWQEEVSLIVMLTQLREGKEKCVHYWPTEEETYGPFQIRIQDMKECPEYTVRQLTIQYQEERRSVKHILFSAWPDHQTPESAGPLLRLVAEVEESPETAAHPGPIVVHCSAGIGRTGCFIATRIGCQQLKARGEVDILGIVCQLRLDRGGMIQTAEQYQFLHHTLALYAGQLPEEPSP
# [30] = target: T9, Dual specificity protein phosphatase 6 (Rattus norvegicus, UniProt Q64346); format: functional;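 also: confirmatory in vitro dose-response testing of MKP-3 inhibition; recombinant His-tagged MKP-3 made in E. coli BL21 with OMFP substrate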
# T9 sequence (Q64346 whole entry): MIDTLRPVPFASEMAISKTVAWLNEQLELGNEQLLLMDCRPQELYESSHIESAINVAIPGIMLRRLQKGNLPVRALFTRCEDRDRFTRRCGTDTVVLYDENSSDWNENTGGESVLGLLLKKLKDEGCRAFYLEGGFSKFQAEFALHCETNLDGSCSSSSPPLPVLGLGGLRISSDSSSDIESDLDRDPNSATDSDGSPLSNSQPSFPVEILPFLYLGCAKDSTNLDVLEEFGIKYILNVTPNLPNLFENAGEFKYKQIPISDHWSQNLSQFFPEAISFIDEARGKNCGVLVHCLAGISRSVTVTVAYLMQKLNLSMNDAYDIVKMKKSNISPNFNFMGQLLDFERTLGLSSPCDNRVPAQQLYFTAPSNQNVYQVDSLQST
# [31] = target: Dual specificity protein phosphatase 3 (Homo sapiens, UniProt P51452); experiment: SAR VHR1 Fluorescent Assay for In Vitro dose response studies Set 2. [Related pubchem assays (depositor defined):AID1654, AID1661, AID1878]; format: functional
# Mu-type opioid receptor = Mu-type opioid receptor (Homo sapiens, UniProt P35372); experiment: SAR Analysis of Antagonists of the MOR Receptor using an Image-Based Assay - Set 3. [Related pubchem assays (depositor defined):AID1777, AID1785, AID1786, AID1966, AID2133, AID2136, AID2284, AID2285, AID2420]; format: functional
# [32] = target: Delta-type opioid receptor (Homo sapiens, UniProt P41143); experiment: SAR Analysis of Antagonists of the DOR Receptor using an Image-Based Assay - Set 3. [Related pubchem assays (depositor defined):AID1777, AID1785]; format: functional;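 also: U2OS cells expressing DOR1 and beta-arrestin GFP stimulated with 100 nM SNC80; imaging of GFP-tagged beta-arrestin moving into spots after receptor activation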
# [33] = target: T10, Kappa-type opioid receptor (Homo sapiens, UniProt P41145); experiment: SAR analysis of small molecule antagonists of the kappa opioid receptor via a luminescent beta-arrestin assay - Set 3. [Related pubchem assays (depositor defined):AID1777, AID1778, AID1785, AID1786, AID1966, AID2133, AID2136, AID2285, AID2495]; format: functional
# [34] = target: T10, Kappa-type opioid receptor; experiment: SAR analysis of Antagonists of the Kappa Opioid Receptor (KOR) using an Image-Based Assay - Set 3. [Related pubchem assays (depositor defined):AID1777, AID1785]; format: functional
# [35] = target: T2, Ubiquitin-conjugating enzyme E2 N; format: functional; remark: listed apart in the source
# Bcl-2-related protein A1 = target: T11, Bcl-2-related protein A1 (Mus musculus, UniProt Q07440); format: functional;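 also: confirmatory dose–response counterscreen on Bfl-1, used to check hits from a UBC13 polyubiquitin inhibitor campaign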
# T11 sequence (Q07440 whole entry): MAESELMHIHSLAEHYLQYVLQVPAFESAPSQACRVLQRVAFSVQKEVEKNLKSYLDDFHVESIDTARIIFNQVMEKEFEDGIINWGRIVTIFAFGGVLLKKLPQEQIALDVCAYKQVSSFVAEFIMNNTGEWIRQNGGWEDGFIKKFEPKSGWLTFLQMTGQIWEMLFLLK
# Coagulation factor XII [36] = target: T3, Coagulation factor XII; format: functional
# [37] = target: Sphingosine 1-phosphate receptor 4 (Homo sapiens, UniProt O95977); experiment: Late-stage fluorescence dose response cell-based assay to identify agonists of the Sphingosine 1-Phosphate Receptor 4 (S1P4): purchased compounds EC50. [Related pubchem assays (depositor defined):AID1509, AID1523, AID1563, AID1686, AID1701, AID1801]; format: functional
# Sphingosine 1-phosphate receptor 4, sequence (O95977 whole entry): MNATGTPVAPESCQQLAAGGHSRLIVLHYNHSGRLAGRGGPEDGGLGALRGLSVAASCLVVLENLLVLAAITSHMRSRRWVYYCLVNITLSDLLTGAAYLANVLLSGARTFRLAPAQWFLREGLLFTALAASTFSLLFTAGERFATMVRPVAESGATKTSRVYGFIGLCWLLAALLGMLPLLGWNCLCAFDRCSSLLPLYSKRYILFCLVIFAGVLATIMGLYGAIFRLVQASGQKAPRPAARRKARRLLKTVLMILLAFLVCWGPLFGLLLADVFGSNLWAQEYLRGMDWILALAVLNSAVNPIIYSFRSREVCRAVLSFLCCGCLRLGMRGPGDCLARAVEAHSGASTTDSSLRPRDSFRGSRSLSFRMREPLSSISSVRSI
# T7 sequence (P34972 whole entry): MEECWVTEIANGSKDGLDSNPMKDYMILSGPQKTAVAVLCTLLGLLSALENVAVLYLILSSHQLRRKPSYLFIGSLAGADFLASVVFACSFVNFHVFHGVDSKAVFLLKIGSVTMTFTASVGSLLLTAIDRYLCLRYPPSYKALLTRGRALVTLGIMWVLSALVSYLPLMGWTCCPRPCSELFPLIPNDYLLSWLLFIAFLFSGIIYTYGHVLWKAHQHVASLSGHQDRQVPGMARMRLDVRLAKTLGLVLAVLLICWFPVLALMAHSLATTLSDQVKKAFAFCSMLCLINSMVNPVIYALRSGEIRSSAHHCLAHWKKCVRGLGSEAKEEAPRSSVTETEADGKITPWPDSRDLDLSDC
# T3 sequence (P00748 20-372 limits assumed): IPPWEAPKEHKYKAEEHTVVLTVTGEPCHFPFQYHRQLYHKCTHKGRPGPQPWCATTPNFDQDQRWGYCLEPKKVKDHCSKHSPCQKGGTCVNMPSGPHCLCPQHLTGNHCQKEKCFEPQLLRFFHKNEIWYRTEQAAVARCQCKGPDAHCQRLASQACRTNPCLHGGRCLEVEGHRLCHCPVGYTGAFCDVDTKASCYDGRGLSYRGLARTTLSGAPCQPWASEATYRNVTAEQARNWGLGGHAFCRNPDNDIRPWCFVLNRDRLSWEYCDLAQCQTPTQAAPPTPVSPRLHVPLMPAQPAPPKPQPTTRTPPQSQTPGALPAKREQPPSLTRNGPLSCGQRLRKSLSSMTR
# T3 sequence (P00748 373-615 limits assumed): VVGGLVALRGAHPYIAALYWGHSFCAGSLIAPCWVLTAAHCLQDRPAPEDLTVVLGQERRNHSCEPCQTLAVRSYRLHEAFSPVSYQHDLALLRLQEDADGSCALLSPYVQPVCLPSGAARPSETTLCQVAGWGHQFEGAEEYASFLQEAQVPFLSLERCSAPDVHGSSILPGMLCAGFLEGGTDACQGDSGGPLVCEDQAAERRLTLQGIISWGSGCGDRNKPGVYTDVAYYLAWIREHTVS
# T1 sequence (Q9Y2T6 whole entry): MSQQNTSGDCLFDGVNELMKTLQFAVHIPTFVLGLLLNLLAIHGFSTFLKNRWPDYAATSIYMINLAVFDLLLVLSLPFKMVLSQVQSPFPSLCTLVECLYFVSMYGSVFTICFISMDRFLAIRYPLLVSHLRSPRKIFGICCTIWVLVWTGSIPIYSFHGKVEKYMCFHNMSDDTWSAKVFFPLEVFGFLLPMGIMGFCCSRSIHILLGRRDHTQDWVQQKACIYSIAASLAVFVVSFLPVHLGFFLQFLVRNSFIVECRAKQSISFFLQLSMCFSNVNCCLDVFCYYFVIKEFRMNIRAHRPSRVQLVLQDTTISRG
# T5 sequence (Q9HC97 whole entry): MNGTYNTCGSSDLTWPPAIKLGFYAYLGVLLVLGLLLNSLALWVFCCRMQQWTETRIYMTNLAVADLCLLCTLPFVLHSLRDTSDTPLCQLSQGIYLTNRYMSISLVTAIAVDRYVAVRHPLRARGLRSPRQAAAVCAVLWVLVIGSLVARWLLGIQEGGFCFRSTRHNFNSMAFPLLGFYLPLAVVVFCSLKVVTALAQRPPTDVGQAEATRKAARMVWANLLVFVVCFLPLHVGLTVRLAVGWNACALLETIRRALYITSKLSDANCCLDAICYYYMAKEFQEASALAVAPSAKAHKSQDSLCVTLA
# T10 sequence (P41145 whole entry): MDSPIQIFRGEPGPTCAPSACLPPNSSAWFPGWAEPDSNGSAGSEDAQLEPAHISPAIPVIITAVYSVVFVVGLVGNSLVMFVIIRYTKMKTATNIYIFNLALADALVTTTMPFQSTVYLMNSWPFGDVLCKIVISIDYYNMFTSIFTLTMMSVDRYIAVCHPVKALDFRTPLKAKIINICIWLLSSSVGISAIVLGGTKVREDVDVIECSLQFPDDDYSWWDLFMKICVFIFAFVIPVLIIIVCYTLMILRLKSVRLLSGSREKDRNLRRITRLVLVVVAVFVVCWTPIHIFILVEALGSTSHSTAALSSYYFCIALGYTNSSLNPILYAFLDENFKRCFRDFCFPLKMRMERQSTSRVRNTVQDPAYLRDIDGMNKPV
# T6 sequence (P21554 whole entry): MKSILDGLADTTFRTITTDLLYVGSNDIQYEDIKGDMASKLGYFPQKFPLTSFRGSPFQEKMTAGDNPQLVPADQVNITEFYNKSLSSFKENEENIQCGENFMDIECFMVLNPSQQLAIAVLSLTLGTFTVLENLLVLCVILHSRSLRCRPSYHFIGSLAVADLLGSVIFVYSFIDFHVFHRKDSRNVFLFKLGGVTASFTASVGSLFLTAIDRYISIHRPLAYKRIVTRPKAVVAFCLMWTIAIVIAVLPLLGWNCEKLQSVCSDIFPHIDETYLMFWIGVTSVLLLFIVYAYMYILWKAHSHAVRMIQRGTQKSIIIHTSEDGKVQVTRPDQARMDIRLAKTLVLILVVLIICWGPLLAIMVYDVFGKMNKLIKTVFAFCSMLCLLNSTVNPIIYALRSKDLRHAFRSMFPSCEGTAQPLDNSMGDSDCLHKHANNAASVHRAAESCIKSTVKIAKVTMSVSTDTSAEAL
# Delta-type opioid receptor, sequence (P41143 whole entry): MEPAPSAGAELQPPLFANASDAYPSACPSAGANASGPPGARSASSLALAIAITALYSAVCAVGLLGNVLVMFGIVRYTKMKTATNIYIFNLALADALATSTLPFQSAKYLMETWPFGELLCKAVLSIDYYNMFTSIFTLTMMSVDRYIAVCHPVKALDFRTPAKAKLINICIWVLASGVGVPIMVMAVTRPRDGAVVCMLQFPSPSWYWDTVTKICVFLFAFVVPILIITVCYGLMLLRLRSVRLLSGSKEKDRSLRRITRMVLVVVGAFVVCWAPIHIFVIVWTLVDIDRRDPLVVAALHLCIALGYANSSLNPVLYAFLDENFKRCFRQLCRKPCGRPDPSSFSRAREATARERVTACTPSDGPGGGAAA
# Protein-tyrosine kinase 2-beta, sequence (Q14289 whole entry): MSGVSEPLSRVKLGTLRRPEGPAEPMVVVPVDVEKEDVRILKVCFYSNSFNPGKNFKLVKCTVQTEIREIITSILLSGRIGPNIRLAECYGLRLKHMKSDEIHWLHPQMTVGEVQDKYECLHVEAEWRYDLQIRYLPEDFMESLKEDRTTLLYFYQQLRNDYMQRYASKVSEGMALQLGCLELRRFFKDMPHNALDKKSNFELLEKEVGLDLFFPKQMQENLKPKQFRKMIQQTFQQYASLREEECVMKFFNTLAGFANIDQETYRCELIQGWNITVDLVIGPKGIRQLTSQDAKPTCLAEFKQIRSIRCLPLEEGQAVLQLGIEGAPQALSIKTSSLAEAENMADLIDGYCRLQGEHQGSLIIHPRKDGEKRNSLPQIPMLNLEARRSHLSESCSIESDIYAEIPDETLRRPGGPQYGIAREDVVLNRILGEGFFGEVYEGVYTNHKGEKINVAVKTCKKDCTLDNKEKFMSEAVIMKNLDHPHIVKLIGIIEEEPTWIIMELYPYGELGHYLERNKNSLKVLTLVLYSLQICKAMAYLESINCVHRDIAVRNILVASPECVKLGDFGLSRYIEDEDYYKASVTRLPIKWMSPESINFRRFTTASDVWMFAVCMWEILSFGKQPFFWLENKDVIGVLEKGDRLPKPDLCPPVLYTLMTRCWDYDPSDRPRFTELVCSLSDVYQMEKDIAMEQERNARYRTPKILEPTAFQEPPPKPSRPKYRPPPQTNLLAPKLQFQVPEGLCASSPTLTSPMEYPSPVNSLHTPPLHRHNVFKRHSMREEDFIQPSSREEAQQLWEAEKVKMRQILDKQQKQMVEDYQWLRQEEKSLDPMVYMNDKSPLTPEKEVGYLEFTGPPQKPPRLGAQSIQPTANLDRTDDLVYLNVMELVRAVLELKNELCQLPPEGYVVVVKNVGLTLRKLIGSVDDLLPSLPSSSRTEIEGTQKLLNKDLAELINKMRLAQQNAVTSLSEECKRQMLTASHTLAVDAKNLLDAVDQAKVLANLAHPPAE
# Dual specificity protein phosphatase 3, sequence (P51452 whole entry): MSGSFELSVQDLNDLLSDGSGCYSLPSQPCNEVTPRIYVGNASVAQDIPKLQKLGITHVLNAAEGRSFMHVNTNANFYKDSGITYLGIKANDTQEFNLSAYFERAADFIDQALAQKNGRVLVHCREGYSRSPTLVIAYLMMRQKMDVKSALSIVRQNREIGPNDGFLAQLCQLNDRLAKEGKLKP
# X-box-binding protein 1, sequence (P17861 whole entry): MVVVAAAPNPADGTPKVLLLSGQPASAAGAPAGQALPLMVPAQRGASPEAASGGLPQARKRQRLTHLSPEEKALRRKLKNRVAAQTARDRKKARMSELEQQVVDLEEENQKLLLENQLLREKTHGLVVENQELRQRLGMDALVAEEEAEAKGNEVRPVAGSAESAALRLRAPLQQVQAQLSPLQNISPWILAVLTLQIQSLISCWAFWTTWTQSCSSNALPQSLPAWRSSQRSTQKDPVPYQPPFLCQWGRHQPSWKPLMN
# DNA damage-inducible transcript 3 protein, sequence (P35639 whole entry): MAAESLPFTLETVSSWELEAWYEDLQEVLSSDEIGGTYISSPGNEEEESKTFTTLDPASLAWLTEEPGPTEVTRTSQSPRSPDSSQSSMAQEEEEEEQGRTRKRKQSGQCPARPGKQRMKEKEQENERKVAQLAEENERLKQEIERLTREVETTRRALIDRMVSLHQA
smiles,measurement,setting,value
O=C(COc1ccc(/C=N/NC(=O)c2cc3ccccc3o2)cc1Cl)Nc1ccccc1,EC50,[1],191 µM (active)
same,IC50,[2],2.65 µM (active)
same,EC50,Integrin alpha-4,23.4 µM (active)
same,EC50,[3],19.2 µM (active)
same,EC50,[4],2 µM (active)
Cc1ccc(Nc2nc(NCc3ccco3)c3ccccc3n2)cc1.Cl,AC50,[5],7.35 µM (active)
same,AC50,[6],12.3 µM (active)
same,AC50,[7],9.43 µM (active)
same,AC50,[8],10.9 µM (active)
same,EC50,[9],> 160 µM (inconclusive)
same,IC50,[10],5.21 µM (active)
same,Absolute IC50 (XBP1),X-box-binding protein 1,10 µM
same,AC50,[11],16.1 µM (active)
same,AC50,[12],9.84 µM (active)
same,EC50,[13],3.24 µM (active)
same,Absolute IC50 (CHOP),[14],10 µM
same,AC50,[15],12.6 µM (active)
same,EC50,[3],> 30 µM (not active)
same,AC50,[16],3.31 µM (active)
same,EC50,[4],< 0.1 µM (active)
same,IC50,[17],> 20 µM (inactive)
same,AC50,INS1,3.65 µM (active)
same,EC50,cells,0.094 µM (active)
Cc1ccccc1C(=O)/N=c1\sccn1C,IC50,Coagulation factor XII [18],> 50 µM (inactive)
Cc1coc2c(C)c3oc(=O)c(CCC(=O)N[C@@H](C)C(=O)N[C@@H](Cc4ccccc4)C(=O)O)c(C)c3cc12,IC50,[19],3.6 µM (active)
same,IC50,[20],> 20 µM (inactive)
CCc1cc(C(=O)Nc2cc(S(=O)(=O)N3CCOCC3)ccc2OC)sc1C,IC50,[21],> 32 µM (inactive)
same,IC50,Cannabinoid receptor 1 [22],> 32 µM (inactive)
same,IC50,Cannabinoid receptor 2 [23],> 32 µM (inactive)
same,EC50,Cannabinoid receptor 2 [24],> 32 µM (inactive)
same,EC50,[25],> 32 µM (inactive)
same,EC50,[26],2.22 µM (active)
same,EC50,Cannabinoid receptor 1 [27],> 32 µM (inactive)
N=C(NOC(=O)c1cccc2ccccc12)c1cccnc1,CC50,[28],15 µM (active)
O=C(O)c1ccc(C=c2sc(=CC(=O)c3ccco3)[nH]c2=O)cc1,IC50,[29],4.09 µM (active)
same,IC50,[30],> 100 µM (inactive)
same,IC50,[31],16.2 µM (active)
CCc1ccc(S(=O)(=O)NCc2ccc(C(=O)NCCN3Cc4ccccc4C3)cc2)cc1,IC50,Mu-type opioid receptor,> 32 µM (inactive)
same,IC50,[32],> 32 µM (inactive)
same,IC50,[33],> 20 µM (inactive)
same,IC50,[34],> 32 µM (inactive)
CCCCn1c(=O)[nH]c(=O)c2c1nc(-c1ccc(C#N)cc1)n2C1CCCC1,IC50,[35],1.99 µM (active)
same,IC50,Bcl-2-related protein A1,> 20 µM (inactive)
same,IC50,[17],18.7 µM (active)
CCCCOC(=O)c1ccc(NC(=O)C(=O)NCc2ccco2)cc1,IC50,Coagulation factor XII [36],> 50 µM (inactive)
Cc1ccc(OCc2cc3ccc(C)c(C)c3nc2Cl)c([N+](=O)[O-])n1,EC50,[37],> 50 µM (inactive)
